This note sets out measurements from patent publication US20050054696A1, “Indole compounds and medicinal use thereof” (priority 2001, published 2005).

The target in this test is T1, recombinant human liver glycogen phosphorylase (HLGPa) (Homo sapiens, UniProt P06737).
T1 construct: made in house; host or cells: Sf9 insect cells (unpurified cell lysate used as enzyme solution)
T1 sequence (P06737 1-847): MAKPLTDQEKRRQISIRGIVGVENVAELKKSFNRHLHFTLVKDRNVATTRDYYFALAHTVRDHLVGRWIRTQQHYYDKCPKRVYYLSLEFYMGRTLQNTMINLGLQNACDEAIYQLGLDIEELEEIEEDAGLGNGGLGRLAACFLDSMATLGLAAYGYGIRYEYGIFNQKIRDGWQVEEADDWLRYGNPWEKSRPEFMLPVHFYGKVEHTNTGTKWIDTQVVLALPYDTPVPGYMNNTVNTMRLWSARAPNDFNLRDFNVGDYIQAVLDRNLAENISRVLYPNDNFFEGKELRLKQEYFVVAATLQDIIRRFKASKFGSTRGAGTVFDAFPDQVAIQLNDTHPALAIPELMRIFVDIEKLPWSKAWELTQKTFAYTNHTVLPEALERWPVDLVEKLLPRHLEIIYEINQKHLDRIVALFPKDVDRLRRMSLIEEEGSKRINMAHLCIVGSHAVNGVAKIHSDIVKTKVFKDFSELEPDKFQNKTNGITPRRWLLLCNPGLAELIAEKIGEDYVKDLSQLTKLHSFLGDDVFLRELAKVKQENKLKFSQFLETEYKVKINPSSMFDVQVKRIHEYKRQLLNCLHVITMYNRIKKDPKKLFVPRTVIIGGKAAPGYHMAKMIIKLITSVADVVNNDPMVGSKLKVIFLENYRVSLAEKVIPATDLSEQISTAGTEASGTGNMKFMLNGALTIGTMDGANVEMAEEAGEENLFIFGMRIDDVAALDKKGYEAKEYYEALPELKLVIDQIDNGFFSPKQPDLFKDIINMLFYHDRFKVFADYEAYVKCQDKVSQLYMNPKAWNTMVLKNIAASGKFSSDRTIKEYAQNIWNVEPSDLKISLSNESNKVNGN
The test can be described thus: Measurement of liver glycogen phosphorylase activity (enzyme inhibitory activity against HLGPa). Particulars: Sf9 cell lysate expressing recombinant enzyme; reverse reaction (glycogen synthesis from G1-P), phosphate by malachite green, 60 min room temperature. The format is biochemical. The method, boiled down: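 Activity was run in the reverse, glycogen-synthesis direction, using Sf9 lysate expressing recombinant human liver glycogen phosphorylase (enzyme solution 80 μg/mL protein, pH 7.0). Substrate solution was Tris pH 7.2 with 1.25 mM glucose-1-phosphate, 2.5 mg/ml glycogen and 7.5 mM glucose, reacted 60 min at room temperature. Released phosphate was measured by malachite green A650, with % inhibition taken against DMSO control and no-enzyme blank.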

`O=C(NNC(=O)c1cc2cc(Cl)ccc2[nH]1)Nc1ccc(Cl)cc1` [Example 5-11, 5-chloro-1H-indole-2-carboxylic acid 2-((4-chloroanilino)carbonyl)hydrazide]: the 50% inhibitory concentration (IC50) is more than 100 nM.

Turning to `O=C(NNC(=O)c1cc2cc(Cl)ccc2[nH]1)c1ccncc1` [Example 1-42, isonicotinic acid 2-(5-chloro-1H-indole-2-carbonyl)hydrazide], the IC50 came to 260 nM. For the compound `Cc1nc(C(=O)NNC(=O)c2cc3cc(Cl)ccc3[nH]2)c(N)s1` [Example 1-143, 5-amino-2-methylthiazole-4-carboxylic acid 2-(5-chloro-1H-indole-2-carbonyl)hydrazide], the IC50 was determined as 120 nM. In the case of `O=C(NN1C(=O)N[C@@H](Cc2ccccc2)C1=O)c1cc2cc(Cl)ccc2[nH]1` [Example 4-9, 5-chloro-1H-indole-2-carboxylic acid ((4S)-4-benzyl-2,5-dioxoimidazolidin-1-yl)amide], the concentration for half-maximal inhibition (IC50) is more than 100 nM. As for `CN(C)c1ccccc1C(=O)NNC(=O)c1cc2cc(Cl)ccc2[nH]1` [Example 1-51, 2-(dimethylamino)benzoic acid 2-(5-chloro-1H-indole-2-carbonyl)hydrazide], the half-inhibitory concentration (IC50) was determined as 89 nM.

Regarding `CN1C(=O)N(NC(=O)c2cc3cc(Cl)ccc3[nH]2)C(=O)[C@@H]1c1ccccc1` [Example 4-12, 5-chloro-1H-indole-2-carboxylic acid (1-methyl-2,5-dioxo-4-phenylimidazolidin-1-yl)amide], the IC50 was more than 100 nM. To `CN(C)C(=O)Oc1ccccc1C(=O)NNC(=O)c1cc2cc(Cl)ccc2[nH]1` [Example 1-65, 2-(2-(5-chloro-1H-indole-2-carbonyl)hydrazinocarbonyl)phenyl dimethylcarbamate] belongs more than 100 nM; to `O=C(NN1C(=O)N[C@@H](c2ccc(O)cc2)C1=O)c1cc2cc(Cl)ccc2[nH]1` [Example 4-18, 5-chloro-1H-indole-2-carboxylic acid ((4S)-2,5-dioxo-4-(4-hydroxyphenyl)imidazolidin-1-yl)amide], 75 nM; to `O=C(NNC(=O)c1ccc(Cl)cc1Cl)c1cc2cc(Cl)ccc2[nH]1` [Example 1-24, 2,4-dichlorobenzoic acid 2-(5-chloro-1H-indole-2-carbonyl)hydrazide], 170 nM.

Take `Nc1cc(Cl)ccc1C(=O)NNC(=O)c1cc2cc(Cl)ccc2[nH]1` [Example 1-54, 2-amino-4-chlorobenzoic acid 2-(5-chloro-1H-indole-2-carbonyl)hydrazide]: the half-maximal inhibitory concentration (IC50) was 30 nM. With `O=C(NNC(=O)C1CCCCC1)c1cc2cc(F)ccc2[nH]1` [Example 1-10, cyclohexanecarboxylic acid 2-(5-fluoro-1H-indole-2-carbonyl)hydrazide], the 50% inhibitory concentration (IC50) came to 200 nM. Turning to `Cc1ccc2[nH]c(C(=O)NNC(=O)c3ccc(F)cc3N)cc2c1` [Example 1-63, 2-amino-4-fluorobenzoic acid 2-(5-methyl-1H-indole-2-carbonyl)hydrazide], the half-inhibitory concentration (IC50) turned out to be 28 nM.

Regarding `O=C(NNC(=O)c1cc2cc(Cl)ccc2[nH]1)c1ccc(Cl)cc1` [Example 1-21, 4-chlorobenzoic acid 2-(5-chloro-1H-indole-2-carbonyl)hydrazide], the half-inhibitory concentration (IC50) is 49 nM. As for `CC(=O)Nc1cccc(C(=O)NNC(=O)c2cc3cc(Cl)ccc3[nH]2)c1` [Example 1-46, N-(3-(2-(5-chloro-1H-indole-2-carbonyl)hydrazinocarbonyl)phenyl)acetamide], the IC50 amounted to 290 nM.

Turning to `O=C(NNC(=O)c1cc2cc(Cl)ccc2[nH]1)c1cc(F)c(F)c(F)c1` [Example 1-93, 3,4,5-trifluorobenzoic acid 2-(5-chloro-1H-indole-2-carbonyl)hydrazide], the IC50 came out at 270 nM.

Consider `O=C(NNC(=O)c1cc2cc(Cl)ccc2[nH]1)c1ccc(-c2nnn[nH]2)cc1` [Example 1-59, 4-(1H-tetrazol-5-yl)benzoic acid 2-(5-chloro-1H-indole-2-carbonyl)hydrazide], for which the 50% inhibitory concentration (IC50) was more than 100 nM. Regarding `COc1ccccc1C(=N)NNC(=O)c1cc2cc(Cl)ccc2[nH]1` [Example 6-24, 5-chloro-1H-indole-2-carboxylic acid 2-(imino-(2-methoxyphenyl)-methyl)hydrazide methanesulfonate], the IC50 was found to be 160 nM. On to `Cc1cccc(C(=O)NNC(=O)c2cc3cc(Cl)ccc3[nH]2)c1` [Example 1-18, 3-methylbenzoic acid 2-(5-chloro-1H-indole-2-carbonyl)hydrazide], for which the IC50 is 99 nM. As for `Cc1ccc(N2CCC(=O)N(NC(=O)c3cc4cc(Cl)ccc4[nH]3)C2=O)cc1` [Example 3-13, 5-chloro-1H-indole-2-carboxylic acid (2,4-dioxo-1-(p-tolyl)perhydropyrimidin-3-yl)amide], the IC50 was found to be 440 nM.

As to `O=C(NN1C(=O)CNC1=O)c1cc2cc(Cl)ccc2[nH]1` [Example 4-11, 5-chloro-1H-indole-2-carboxylic acid (2,4-dioxoimidazolidin-3-yl)amide], the IC50 was more than 100 nM. `Nc1ccccc1C(=O)NNC(=O)c1cc2cc(F)ccc2[nH]1` [Example 1-38, 2-aminobenzoic acid 2-(5-fluoro-1H-indole-2-carbonyl)hydrazide]: the 50% inhibitory concentration (IC50) was more than 100 nM. For `COc1cccc(C(=O)NNC(=O)c2cc3cc(Cl)ccc3[nH]2)c1` [Example 1-16, 3-methoxybenzoic acid 2-(5-chloro-1H-indole-2-carbonyl)hydrazide], the IC50 came out at 73 nM. Consider `O=C(NNC(=O)c1cc2cc(Cl)ccc2[nH]1)Nc1cccc(Cl)c1` [Example 5-10, 5-chloro-1H-indole-2-carboxylic acid 2-((3-chloroanilino)carbonyl)hydrazide], for which the IC50 was more than 100 nM. As for `Nc1cc(F)ccc1C(=O)NNC(=O)c1cc2cc(Br)ccc2[nH]1` [Example 1-103, 2-amino-4-fluorobenzoic acid 2-(5-bromo-1H-indole-2-carbonyl)hydrazide], the IC50 turned out to be 28 nM.

For the compound `O=C(NN1C(=O)CCN(c2ccccc2)C1=O)c1cc2cc(Cl)ccc2[nH]1` [Example 3-3, N-(2,4-dioxo-1-phenyl-perhydropyrimidin-3-yl)-5-chloro-1H-indole-2-carboxamide], the IC50 was found to be 78 nM. Regarding `CC(C)c1ccc2[nH]c(C(=O)NNC(=O)c3ccccc3N)cc2c1` [Example 1-36, 2-aminobenzoic acid 2-(5-isopropyl-1H-indole-2-carbonyl)hydrazide], the IC50 was more than 100 nM.

Take `O=C(NN1C(=O)CN(c2ccc(F)cc2)C1=O)c1cc2cc(Cl)ccc2[nH]1` [Example 4-13, 5-chloro-1H-indole-2-carboxylic acid (2,4-dioxo-1-(4-fluorophenyl)imidazolidin-3-yl)amide]: the IC50 is more than 100 nM. As to `Cc1cccc(N2CCC(=O)N(NC(=O)c3cc4cc(Cl)ccc4[nH]3)C2=O)c1` [Example 3-12, 5-chloro-1H-indole-2-carboxylic acid (2,4-dioxo-1-(m-tolyl)perhydropyrimidin-3-yl)amide], the IC50 was found to be 680 nM. As to `N=C(NNC(=O)c1cc2cc(Cl)ccc2[nH]1)c1cccc(F)c1` [Example 1-132, 5-chloro-1H-indole-2-carboxylic acid 2-((3-fluorophenyl)-imino-methyl)hydrazide], the IC50 came to 110 nM. As for `Cc1ccc(C(=N)NNC(=O)c2cc3cc(Cl)ccc3[nH]2)cc1` [Example 1-129, 5-chloro-1H-indole-2-carboxylic acid 2-(imino-(p-tolyl)-methyl)hydrazide], the IC50 was found to be 59 nM. As for `O=C(NN1C(=O)CN(c2ccccc2)C1=S)c1cc2cc(Cl)ccc2[nH]1` [Example 4-3, N-(4-oxo-1-phenyl-2-thioxoimidazolidin-3-yl)-5-chloro-1H-indole-2-carboxamide], the IC50 was more than 100 nM. Regarding `O=C(Nn1c(=O)[nH]c2ccccc2c1=O)c1cc2cc(F)ccc2[nH]1` [Example 2-11, 5-fluoro-1H-indole-2-carboxylic acid (1,2,3,4-tetrahydro-2,4-dioxoquinazolin-3-yl)amide], the IC50 was more than 100 nM.

With `O=C(Nn1c(=O)[nH]c2cc(Cl)ccc2c1=O)c1cc2cc(Cl)ccc2[nH]1` [Example 2-19, 5-chloro-1H-indole-2-carboxylic acid (7-chloro-1,2,3,4-tetrahydro-2,4-dioxoquinazolin-3-yl)amide], the half-inhibitory concentration (IC50) was found to be 91 nM. Regarding `Nc1ccccc1C(=O)NNC(=O)c1cc2cc(Br)ccc2[nH]1` [Example 1-102, 2-aminobenzoic acid 2-(5-bromo-1H-indole-2-carbonyl)hydrazide], the half-maximal inhibitory concentration (IC50) is more than 100 nM.
